The text below walks through data of patent US20120190719A1, “METHODS OF TREATING MOTOR DISORDERS WITH ALPHA-2B ANDRENERGIC RECEPTOR AGONISTS” (ALLERGAN, INC., priority 2009, published 2012).

Marks after values point to notes of the source that are not given here.

The test concerns C57B/6 male mice. Nature of the test: Defensive burying (marble burying task). The test is classed as in vivo. To be noted: WT mice; 300 ug/kg IP 30 minutes prior to defensive burying testing; marbles buried more than 2/3 after 30 minutes; N = 6/group; vehicle 46.40%. The source says:
The usefulness of alpha-2B receptor agonists in treating compulsive disorders are exemplified in a widely-used rodent model of compulsive behavior, the marble burying task. Absence of alpha2B receptor activity, either following treatment with an alpha2B receptor antagonist or in alpha2B receptor knockout mice, results in increased compulsive behavior in the marble burying task. […] Two alpha2B agonists used by the inventors, each belonging to a different compound class, are: Compound A, an imidazole thione, and Compound B, an imidazole amine.
Defensive burying: C57B/6 male mice (25-30 g) individually placed into plexiglass mouse cages filled with standard mouse bedding in their housing room. Each cage contained 7 small marbles (diameter 1 cm) and 7 larger marbles (diameter 1.5 cm). Mice remained in the cages for 30 minutes, after which time they were removed from their home cage and the number of marbles buried more than ⅔ was counted. Animals in treatment groups (Table 3) were administered compound IP (1 ml/kg) 30 min prior to testing.
For Table 2, data were evaluated by One-way ANOVA for overall effect of genotype [F(4,57)=4.155; P=0.0053]. Because the 2B WT is the only control for the 2B KO, an unpaired T-test was used to compare differences between 2B WT and 2B KO. For Table 3, data were evaluated by unpaired T-Test.

Regarding `CN1CCc2c(C#N)c(N)n(C)c(=S)c2C1` [Compound C], the “% Buried” value is on record as 61.90%**.
